In patent US10556914B2, “Substituted isoxazolopyridazinones and isothiazolopyridazinones and methods of use” (AbbVie Inc., priority 2015, dated 2020):

molecular target: GABA-B receptor (Rattus norvegicus (Rat), UniProt O88871+Q9Z0U4); assay: [35S]GTPgS Binding Assay (rat brain cortex membranes, native receptor); format: biochemical; settings: rat cortical membranes; in the presence of 1 μM GABA (EC25); basal binding 0%, maximal binding (1 mM GABA) 100%
Experimental: Preparation of Rat Brain Membranes for Native Receptor Assays
Membranes from rat brain cortex were prepared as described in detail by Olpe et al. and stored at concentrations of 1.66 mg/mL protein at −80° C. until required. (Olpe, H.-R, et al. Eur J Pharmacol 1990; 187: 27-38).
[^35S]GTPgS Binding Assay
The samples were incubated at room temperature for 60 minutes on a shaker. The incubation was stopped by rapid vacuum filtration over glass-fiber filter plates (UniFilter-96 well, GF/B membrane plates, PerkinElmer) using a 96-well plate harvester (TOMTEK© Harvester). The UniFilter plate was washed five times with ice-cold wash buffer (50 mM Tris-HCl buffer, pH 7.7, 10 mM MgCl2, and 100 mM NaCl. After filtration the plate was dried for 90 minutes at 55° C. The plates were closed on the bottom with black sealing membranes, and liquid scintillation cocktail (35 μL, Betaplate Scint, PerkinElmer) was added to each well. After sealing the top of the plate, an additional incubation step of 90 minutes at room temperature followed before measuring the plate. The amount of membrane-bound [^35S]GTPgS was measured using a 96-well plate reader (Microbeta®, PerkinElmer). Nonspecific binding was measured in the presence of unlabeled 10 μM of GTPgS (Millipore) and without GABA. Basal binding was measured in the absence of 1 μM GABA, and maximal binding was measured in the presence of GABA using 1 mM GABA concentrations.
Data analysis. The concentration-response curves of compounds of the present disclosure in the presence of EC25 of GABA-B receptor agonist were generated using the GraphPad Prism® program (GraphPad Software, San Diego, Calif.). Data was normalized using basal binding as 0% and maximal binding as 100%. The curves were fitted by nonlinear regression allowing determination of EC50 values from sigmoidal dose-response curves. Each curve was performed using triplicate sample per date point and 10 concentrations.

GABA-B receptor, sequence (Q9Z0U4 17-960): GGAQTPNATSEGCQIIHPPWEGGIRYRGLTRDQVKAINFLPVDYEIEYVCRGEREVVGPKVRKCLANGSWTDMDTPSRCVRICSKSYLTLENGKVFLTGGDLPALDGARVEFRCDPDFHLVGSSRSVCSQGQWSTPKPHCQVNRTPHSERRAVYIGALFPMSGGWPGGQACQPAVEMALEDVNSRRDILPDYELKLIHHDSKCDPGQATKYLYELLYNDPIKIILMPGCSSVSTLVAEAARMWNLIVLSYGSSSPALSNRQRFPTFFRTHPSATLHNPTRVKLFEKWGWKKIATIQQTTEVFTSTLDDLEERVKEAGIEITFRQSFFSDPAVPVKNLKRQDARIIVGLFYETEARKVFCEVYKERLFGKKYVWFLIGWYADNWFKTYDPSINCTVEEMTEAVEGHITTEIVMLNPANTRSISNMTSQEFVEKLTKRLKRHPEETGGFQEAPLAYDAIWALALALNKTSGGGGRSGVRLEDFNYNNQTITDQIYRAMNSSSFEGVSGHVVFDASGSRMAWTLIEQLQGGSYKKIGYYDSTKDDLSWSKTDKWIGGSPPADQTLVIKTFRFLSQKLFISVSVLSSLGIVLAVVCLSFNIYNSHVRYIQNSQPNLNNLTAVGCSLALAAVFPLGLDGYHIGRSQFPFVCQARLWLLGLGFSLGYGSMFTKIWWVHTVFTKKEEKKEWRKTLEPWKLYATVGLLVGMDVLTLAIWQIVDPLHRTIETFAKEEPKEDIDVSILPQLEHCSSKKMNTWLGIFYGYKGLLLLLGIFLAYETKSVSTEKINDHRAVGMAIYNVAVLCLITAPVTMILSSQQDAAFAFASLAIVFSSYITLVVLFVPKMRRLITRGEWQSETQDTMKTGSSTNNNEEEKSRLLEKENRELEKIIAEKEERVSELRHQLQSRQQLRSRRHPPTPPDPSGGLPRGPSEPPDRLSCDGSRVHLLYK
GABA-B receptor, sequence (O88871 41-940): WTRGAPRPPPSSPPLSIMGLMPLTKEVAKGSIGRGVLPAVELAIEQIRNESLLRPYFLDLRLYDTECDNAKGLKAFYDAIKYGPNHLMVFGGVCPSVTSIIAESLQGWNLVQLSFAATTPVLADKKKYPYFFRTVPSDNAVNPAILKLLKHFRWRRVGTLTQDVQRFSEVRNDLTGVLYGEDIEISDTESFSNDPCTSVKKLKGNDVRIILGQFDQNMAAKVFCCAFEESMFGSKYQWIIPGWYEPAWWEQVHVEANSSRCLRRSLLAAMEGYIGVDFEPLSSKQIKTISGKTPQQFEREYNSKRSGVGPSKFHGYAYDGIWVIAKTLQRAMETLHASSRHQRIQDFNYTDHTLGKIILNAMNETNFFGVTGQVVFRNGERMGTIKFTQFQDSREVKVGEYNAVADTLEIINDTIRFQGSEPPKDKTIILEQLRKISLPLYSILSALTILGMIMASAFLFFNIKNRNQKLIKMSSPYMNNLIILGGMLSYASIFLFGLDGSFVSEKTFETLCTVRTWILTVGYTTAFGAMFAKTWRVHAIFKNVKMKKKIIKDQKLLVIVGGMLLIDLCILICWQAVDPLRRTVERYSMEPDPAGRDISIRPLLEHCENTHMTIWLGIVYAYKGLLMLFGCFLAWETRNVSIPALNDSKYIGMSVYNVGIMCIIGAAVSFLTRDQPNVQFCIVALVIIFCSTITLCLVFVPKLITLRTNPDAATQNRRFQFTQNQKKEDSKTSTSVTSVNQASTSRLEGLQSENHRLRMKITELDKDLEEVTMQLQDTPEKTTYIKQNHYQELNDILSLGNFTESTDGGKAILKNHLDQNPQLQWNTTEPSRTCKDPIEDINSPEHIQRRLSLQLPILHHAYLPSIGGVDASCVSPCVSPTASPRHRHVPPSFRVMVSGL

| EC50 [µM] | SMILES |
| --- | --- |
| 0.491 | COc1ccc(F)cc1-c1nn(C(C)c2ccc(Cl)cc2)c(=O)c2c(C)noc12 (stereo not drawn) [Example 63, 5-[1-(4-chlorophenyl)ethyl]-7-(5-fluoro-2-methoxyphenyl)-3-methyl[1,2]oxazolo[4,5-d]pyridazin-4(5H)-one] |
| 0.511 | COc1ccc(C(F)(F)F)cc1-c1nn(C(C)c2ccc(Cl)cc2)c(=O)c2c(C)noc12 (stereo not drawn) [Example 79, 5-[1-(4-chlorophenyl)ethyl]-7-[2-methoxy-5-(trifluoromethyl)phenyl]-3-methyl[1,2]oxazolo[4,5-d]pyridazin-4(5H)-one] |
| 0.453 | CCNC(=O)c1ccc(OC)c(-c2nn(C(C)c3ccc(Cl)cc3)c(=O)c3c(C)noc23)c1 (stereo not drawn) [Example 131] |
| 3.84 | Cc1noc2c(-c3cncnc3)nn(C(C)c3ccc(Cl)cc3)c(=O)c12 (stereo not drawn) [Example 113, 5-[1-(4-chlorophenyl)ethyl]-3-methyl-7-(pyrimidin-5-yl)[1,2]oxazolo[4,5-d]pyridazin-4(5H)-one] |
| 1.85 | Cc1noc2c(-c3cccc(N)c3C(N)=O)nn(C(C)c3ccc(Cl)cc3)c(=O)c12 (stereo not drawn) [Example 65, 2-amino-6-{5-[1-(4-chlorophenyl)ethyl]-3-methyl-4-oxo-4,5-dihydro[1,2]oxazxazolo[4,5-d]pyridazin-7-yl}benzamide] |
| 0.023 | CNC(=O)c1ccc(OC)c(-c2nn([C@@H](C)c3ccc(Cl)cc3)c(=O)c3c(C)noc23)c1 [Example 82, 3-{5-[(1S)-1-(4-chlorophenyl)ethyl]-3-methyl-4-oxo-4,5-dihydro[1,2]oxazolo[4,5-d]pyridazin-7-yl}-4-methoxy-N-methylbenzamide] |
| 1.39 | CCc1nn([C@@H](c2ccccc2)c2ccc(Cl)cc2)c(=O)c2c(CC)noc12 (single isomer, unassigned) [Example 89] |
| 1.56 | COc1ccc(-c2nn(Cc3ccc(C(F)(F)F)cc3)c(=O)c3c(C)noc23)c(OC)c1 [Example 127, 7-(2,4-dimethoxyphenyl)-3-methyl-5-[4-(trifluoromethyl)benzyl][1,2]oxazolo[4,5-d]pyridazin-4(5H)-one] |
| 0.667 | Cc1noc2c(-c3ccccc3O)nn(C(C)c3ccc(Cl)cc3)c(=O)c12 (stereo not drawn) [Example 100, 5-[1-(4-chlorophenyl)ethyl]-7-(2-hydroxyphenyl)-3-methyl[1,2]oxazolo[4,5-d]pyridazin-4(5H)-one] |
| 0.45 | COc1ccc(C(=O)N2CCCC2)cc1-c1nn(C(C)c2ccc(Cl)cc2)c(=O)c2c(C)noc12 (stereo not drawn) [Example 98, 5-[1-(4-chlorophenyl)ethyl]-7-[2-methoxy-5-(pyrrolidin-1-ylcarbonyl)phenyl]-3-methyl[1,2]oxazolo[4,5-d]pyridazin-4(5H)-one] |
| 1.47 | CC(=O)Nc1ccc(C)c(-c2nn(Cc3ccc(C(F)(F)F)cc3)c(=O)c3c(C)noc23)c1 [Example 107, N-(4-methyl-3-{3-methyl-4-oxo-5-[4-(trifluoromethyl)benzyl]-4,5-dihydro[1,2]oxazolo[4,5-d]pyridazin-7-yl}phenyl)acetamide] |
| 0.582 | COc1ccc(OC)c(-c2nn([C@H](C)c3ccc(C(F)(F)F)cc3)c(=O)c3c(C)noc23)c1 [Example 125, 7-(2,5-dimethoxyphenyl)-3-methyl-5-{(1R)-1-[4-(trifluoromethyl)phenyl]ethyl}[1,2]oxazolo[4,5-d]pyridazin-4(5H)-one] |
| 2.21 | COCc1noc2c(-c3cc(OC)ccc3OC)nn(Cc3ccc(Cl)cc3)c(=O)c12 [Example 71, 5-(4-chlorobenzyl)-7-(2,5-dimethoxyphenyl)-3-(methoxymethyl)[1,2]oxazolo[4,5-d]pyridazin-4(5H)-one] |

The next lines start with the compound.

| SMILES | EC50 [µM] |
| --- | --- |
| COc1ccc(OC)c(-c2nn(CCc3ccc(Cl)cc3)c(=O)c3c(C)noc23)c1 [Example 10, 5-[2-(4-chlorophenyl)ethyl]-7-(2,5-dimethoxyphenyl)-3-methyl[1,2]oxazolo[4,5-d]pyridazin-4(5H)-one] | 1.06 |
| COc1ccc(C(N)=O)cc1-c1nn(C(C)c2ccc(Cl)cc2)c(=O)c2c(C)noc12 (stereo not drawn) [Example 59] | 0.017 |
| Cc1noc2c(-c3ccc(F)c(F)c3)nn(Cc3ccc(Cl)cc3)c(=O)c12 [Example 42, 5-(4-chlorobenzyl)-7-(3,4-difluorophenyl)-3-methyl[1,2]oxazolo[4,5-d]pyridazin-4(5H)-one] | 9.64 |
| CCc1noc2c(-c3cc(OC)ccc3OC)nn(Cc3ccc(Cl)cc3)c(=O)c12 [Example 36, 5-(4-chlorobenzyl)-7-(2,5-dimethoxyphenyl)-3-ethyl[1,2]oxazolo[4,5-d]pyridazin-4(5H)-one] | 0.895 |
| Cc1noc2c(-c3ccc(F)cc3)nn(Cc3ccc(Cl)c(C(F)(F)F)c3)c(=O)c12 [Example 28, 5-[4-chloro-3-(trifluoromethyl)benzyl]-7-(4-fluorophenyl)-3-methyl[1,2]oxazolo[4,5-d]pyridazin-4(5H)-one] | 3.47 |
| Cc1ccc(O)cc1-c1nn(C(C)c2ccc(Cl)cc2)c(=O)c2c(C)noc12 (stereo not drawn) [Example 16, 5-[1-(4-chlorophenyl)ethyl]-7-(5-hydroxy-2-methylphenyl)-3-methyl[1,2]oxazolo[4,5-d]pyridazin-4(5H)-one] | 0.222 |
| Cc1noc2c(-c3cccnc3Cl)nn(C(C)c3ccc(Cl)cc3)c(=O)c12 (stereo not drawn) [Example 7, 5-[1-(4-chlorophenyl)ethyl]-7-(2-chloropyridin-3-yl)-3-methyl[1,2]oxazolo[4,5-d]pyridazin-4(5H)-one] | 0.6 |
| COc1ccc(NC(C)=O)cc1-c1nn(Cc2ccc(Cl)cc2)c(=O)c2c(C)noc12 [Example 45, N-{3-[5-(4-chlorobenzyl)-3-methyl-4-oxo-4,5-dihydro[1,2]oxazolo[4,5-d]pyridazin-7-yl]-4-methoxyphenyl}acetamide] | 0.376 |
| CC(=O)Nc1cccc(-c2nn(Cc3ccc(Cl)cc3)c(=O)c3c(C4CC4)noc23)c1 [Example 51, N-{3-[5-(4-chlorobenzyl)-3-cyclopropyl-4-oxo-4,5-dihydro[1,2]oxazolo[4,5-d]pyridazin-7-yl]phenyl}acetamide] | 1.5 |
| COc1ccc(C(=O)N(C)C)cc1-c1nn(C(C)c2ccc(Cl)cc2)c(=O)c2c(C)noc12 (stereo not drawn) [Example 38] | 0.643 |
| CC(=O)Nc1ccc(C)c(-c2nn([C@H](C)c3ccc(C(F)(F)F)cc3)c(=O)c3c(C)noc23)c1 [Example 35, N-[4-methyl-3-(3-methyl-4-oxo-5-{(1R)-1-[4-(trifluoromethyl)phenyl]ethyl}-4,5-dihydro[1,2]oxazolo[4,5-d]pyridazin-7-yl)phenyl]acetamide] | 0.562 |
| COc1ccccc1-c1nn(Cc2ccc(F)c(C(F)(F)F)c2)c(=O)c2c(C)noc12 [Example 54, 5-[4-fluoro-3-(trifluoromethyl)benzyl]-7-(2-methoxyphenyl)-3-methyl[1,2]oxazolo[4,5-d]pyridazin-4(5H)-one] | 1.2 |
| Cc1noc2c(-c3cccc(S(N)(=O)=O)c3)nn(C(C)c3ccc(Cl)cc3)c(=O)c12 (stereo not drawn) [Example 53, 3-{5-[1-(4-chlorophenyl)ethyl]-3-methyl-4-oxo-4,5-dihydro[1,2]oxazolo[4,5-d]pyridazin-7-yl}benzenesulfonamide] | 0.62 |
| COc1ccc(NC(C)=O)cc1-c1nn([C@@H](C)c2ccc(Cl)cc2)c(=O)c2c(C3CC3)noc12 [Example 1, N-(3-{5-[(1S)-1-(4-chlorophenyl)ethyl]-3-cyclopropyl-4-oxo-4,5-dihydro[1,2]oxazolo[4,5-d]pyridazin-7-yl}-4-methoxyphenyl)acetamide] | 0.051 |
